Measurements published in PubChem BioAssay (NCI).
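The compound was tested at five concentrations on cells cultured in 96-well plates, with a 48-hour exposure period. GI50 = concentration required for 50% inhibition of growth. TGI denotes the concentration required for complete inhibition of growth.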

Tests used:
Assay in all cases: NCI tumour cell line growth inhibition, 48 h
RPMI-8226 leukemia = tested on: RPMI-8226 leukemia
SF-268 CNS = tested on: SF-268 CNS
SNB-19 CNS = tested on: SNB-19 CNS
HT29 colon = tested on: HT29 colon
OVCAR-5 ovarian = tested on: OVCAR-5 ovarian
ACHN renal = tested on: ACHN renal
TK-10 renal = tested on: TK-10 renal
OVCAR-4 ovarian = tested on: OVCAR-4 ovarian
UO-31 renal = tested on: UO-31 renal
SK-MEL-5 melanoma = tested on: SK-MEL-5 melanoma
IGROV1 ovarian = tested on: IGROV1 ovarian
SK-OV-3 ovarian = tested on: SK-OV-3 ovarian
NCI-H522 lung = tested on: NCI-H522 lung
SF-539 CNS = tested on: SF-539 CNS
786-0 renal = tested on: 786-0 renal
UACC-257 melanoma = tested on: UACC-257 melanoma
HCT-15 colon = tested on: HCT-15 colon
LXFL 529 NSCLC = tested on: LXFL 529 NSCLC
K-562 leukemia = tested on: K-562 leukemia
SNB-78 CNS = tested on: SNB-78 CNS
HCT-116 colon = tested on: HCT-116 colon
KM12 colon = tested on: KM12 colon
LOX IMVI melanoma = tested on: LOX IMVI melanoma
EKVX NSCLC = tested on: EKVX NSCLC
COLO 205 colon = tested on: COLO 205 colon
MOLT-4 leukemia = tested on: MOLT-4 leukemia
SN12C renal = tested on: SN12C renal
U251 CNS = tested on: U251 CNS
MALME-3M melanoma = tested on: MALME-3M melanoma
NCI-H23 lung = tested on: NCI-H23 lung
SK-MEL-28 melanoma = tested on: SK-MEL-28 melanoma
CCRF-CEM leukemia = tested on: CCRF-CEM leukemia
UACC-62 melanoma = tested on: UACC-62 melanoma
SW-620 colon = tested on: SW-620 colon
OVCAR-8 ovarian = tested on: OVCAR-8 ovarian
A498 renal = tested on: A498 renal
KM20L2 colon = tested on: KM20L2 colon
HOP-62 NSCLC = tested on: HOP-62 NSCLC
M14 melanoma = tested on: M14 melanoma
A549 NSCLC = tested on: A549 NSCLC
SK-MEL-2 melanoma = tested on: SK-MEL-2 melanoma
DLD-1 colon = tested on: DLD-1 colon
HOP-92 NSCLC = tested on: HOP-92 NSCLC
HCC-2998 colon = tested on: HCC-2998 colon
OVCAR-3 ovarian = tested on: OVCAR-3 ovarian
SF-295 CNS = tested on: SF-295 CNS
SNB-75 CNS = tested on: SNB-75 CNS
NCI-H460 lung = tested on: NCI-H460 lung

## CCCC(=O)[O-].CCCC(=O)[O-].NCCN.NCCN.[Co+3].[O-][Cl+3]([O-])([O-])[O-]
RPMI-8226 leukemia
  TGI: > 100 µM
SF-268 CNS
  TGI: > 100 µM
SNB-19 CNS
  TGI: > 100 µM
HT29 colon
  TGI: > 100 µM
OVCAR-5 ovarian
  TGI: > 100 µM
ACHN renal
  TGI: > 100 µM
TK-10 renal
  TGI: > 100 µM
OVCAR-4 ovarian
  TGI: > 100 µM
UO-31 renal
  TGI: > 100 µM
SK-MEL-5 melanoma
  TGI: > 100 µM
IGROV1 ovarian
  TGI: > 100 µM
SK-OV-3 ovarian
  TGI: > 100 µM
NCI-H522 lung
  TGI: > 100 µM
SF-539 CNS
  TGI: > 100 µM
786-0 renal
  TGI: > 100 µM
UACC-257 melanoma
  TGI: > 100 µM
HCT-15 colon
  TGI: > 100 µM
LXFL 529 NSCLC
  GI50: > 100 µM
  TGI: > 100 µM
K-562 leukemia
  TGI: > 100 µM
SNB-78 CNS
  GI50: > 100 µM
  TGI: > 100 µM
HCT-116 colon
  TGI: > 100 µM
KM12 colon
  TGI: > 100 µM
LOX IMVI melanoma
  TGI: > 100 µM
EKVX NSCLC
  TGI: > 100 µM
COLO 205 colon
  TGI: > 100 µM
MOLT-4 leukemia
  TGI: > 100 µM
SN12C renal
  TGI: > 100 µM
U251 CNS
  TGI: > 100 µM
MALME-3M melanoma
  TGI: > 100 µM
NCI-H23 lung
  TGI: > 100 µM
SK-MEL-28 melanoma
  TGI: > 100 µM
CCRF-CEM leukemia
  TGI: > 100 µM
UACC-62 melanoma
  TGI: > 100 µM
SW-620 colon
  TGI: > 100 µM
OVCAR-8 ovarian
  TGI: > 100 µM
A498 renal
  TGI: > 100 µM
KM20L2 colon
  GI50: > 100 µM
  TGI: > 100 µM
HOP-62 NSCLC
  TGI: > 100 µM
M14 melanoma
  TGI: > 100 µM
A549 NSCLC
  TGI: > 100 µM
SK-MEL-2 melanoma
  TGI: > 100 µM
DLD-1 colon
  GI50: > 100 µM
  TGI: > 100 µM
HOP-92 NSCLC
  TGI: > 100 µM
HCC-2998 colon
  TGI: > 100 µM
OVCAR-3 ovarian
  TGI: > 100 µM
SF-295 CNS
  TGI: > 100 µM
SNB-75 CNS
  TGI: > 100 µM
NCI-H460 lung
  TGI: > 100 µM
